Reference: patent publication US20190038624A1 (priority 2017, published 2019)

What was measured:
[1] = tested on: patient with probable multiple system atrophy; assay type: in vivo, human; conditions: single MSA patient, oral Nilotinib 200 mg
From the text: A person who presented with inability to walk. The disease started 4 years ago with a slowing of their gait and tremors at rest in both hands. […] They had been experiencing dizziness, dysphagia during the past year, and urinary urgency during the previous six months.
Upon admission, the patient could not walk without assistance and needed intermittent bladder catheterization because of urinary incontinence. […] Informed consent was obtained from the patient and their family before treatment of oral Nilotinib 200 mg […]. The monthly monitoring included a physical and a neurological exam, an electrocardiogram, and complete blood count and chemistry.

[2] = tested on: patients with probable MSA; assay type: in vivo, human; conditions: oral 200 mg daily
Method: Five patients fulfilled the consensus criteria for “probable MSA” and received oral Nilotinib 200 mg daily for 24 weeks. Disease progression was monitored every 4 weeks by measuring the patient's motor and non-motor symptoms with the Unified Multiple System Atrophy Rating Scale (UMSARS). Mini Mental State Examination (MMSE) was used to screen for cognitive impairment. […] However, these AEs resolved with continued administration of the drug. […] Furthermore, there was a significant decline of 6.8 and 2.2 points in the UMSARS and UMSARS-II, respectively, compared to baseline (see FIG. 2). MMSE results were normal throughout treatment.

PD and DLB subjects = conditions: 24 weeks of treatment with 300 mg Nilotinib; cited from earlier work
[3] = average of five MSA patients, 24 weeks

SMILES: Cc1cn(-c2cc(NC(=O)c3ccc(C)c(Nc4nccc(-c5cccnc5)n4)c3)cc(C(F)(F)F)c2)cn1 [Nilotinib]
- non-motor symptoms (swallowing, constipation, urinary function) ([1]; 24 weeks): significant improvement of non-motor symptoms
- walking ability at the end of the study ([1]; 24 weeks, could not walk without assistance upon admission): could walk slowly without assistance
- nonserious adverse events ([1]; 24 weeks, no hospitalization, resolved with continuous use): mild skin irritation, dizziness, and mild headache
- decrease on the UMSARS compared with baseline ([1]; week 24): 11 points
- decrease on the UMSARS-II compared with baseline ([1]; week 24): 6 points
- decline in the UMSARS compared to baseline [2, 3]: 6.8 points
- decline in the UMSARS-II compared to baseline [2, 3]: 2.2 points
- non-motor symptoms (swallowing, constipation, urinary function) ([2]; five MSA patients, end of 24 weeks): improvement of non-motor symptoms
- decline in UPDRS I-IV (PD and DLB subjects): 11.1 points
